The source of these data is patent US7696207B2, “Therapeutic agents useful for treating pain” (Purdue Pharma L.P., priority 2002, dated 2010).

In assay [1] the target is T1, human VR1 (Homo sapiens, UniProt Q8NER1).
T1 construct: expressed in transfected cells
Briefly: VR1 pH-based assay (FLIPR calcium influx). The format is cell-based. The following applies: HEK293-EcR cells induced to express human VR1; activation by agonist buffer pH 5.5; Fluo-4, FLIPR. The protocol:
(§1) Human VR1 cloning. Human spinal cord RNA (commercially available from Clontech, Palo Alto, Calif.) was used. Reverse transcription was conducted on 1.0 μg total RNA using Thermoscript Reverse Transcriptase (commercially available from Invitrogen, Carlsbad, Calif.) and oligo dT primers as detailed in its product description. Reverse transcription reactions were incubated at 55° C. for 1 h, heat-inactivated at 85° C. for 5 min, and RNase H-treated at 37° C. for 20 min.
(§2) Human VR1 cDNA sequence was obtained by comparison of the human genomic sequence, prior to annotation, to the published rat sequence. Intron sequences were removed and flanking exonic sequences were joined to generate the hypothetical human cDNA. Primers flanking the coding region of human VR1 were designed as follows: forward primer, […] (SEO ID NO: 1); and reverse primer, […] (SEO ID NO: 2). […]
(§3) Generation of inducible cell lines. […] On the day of assay, cells were loaded with Fluo-4 (a calcium-sensitive dye that is commercially available from Molecular Probes, Eugene, Oreg.) and CAP-mediated calcium influx was measured using a Fluorometric Imaging Plate Reader (“FLIPR”) (commercially available from Molecular Devices Corp., Sunnyvale, Calif.) as described below. […]

The target of assay [2] is T1, human VR1. Briefly: VR1 capsaicin-based assay (FLIPR calcium influx). The format is cell-based. The note with it: HEK293-EcR cells induced to express human VR1; activation by capsaicin (400 nM); Fluo-4, FLIPR. The protocol: as §1, §2, §3

By IC50 is commonly meant the concentration that inhibits the measured activity by half.

T1 sequence (Q8NER1 whole entry): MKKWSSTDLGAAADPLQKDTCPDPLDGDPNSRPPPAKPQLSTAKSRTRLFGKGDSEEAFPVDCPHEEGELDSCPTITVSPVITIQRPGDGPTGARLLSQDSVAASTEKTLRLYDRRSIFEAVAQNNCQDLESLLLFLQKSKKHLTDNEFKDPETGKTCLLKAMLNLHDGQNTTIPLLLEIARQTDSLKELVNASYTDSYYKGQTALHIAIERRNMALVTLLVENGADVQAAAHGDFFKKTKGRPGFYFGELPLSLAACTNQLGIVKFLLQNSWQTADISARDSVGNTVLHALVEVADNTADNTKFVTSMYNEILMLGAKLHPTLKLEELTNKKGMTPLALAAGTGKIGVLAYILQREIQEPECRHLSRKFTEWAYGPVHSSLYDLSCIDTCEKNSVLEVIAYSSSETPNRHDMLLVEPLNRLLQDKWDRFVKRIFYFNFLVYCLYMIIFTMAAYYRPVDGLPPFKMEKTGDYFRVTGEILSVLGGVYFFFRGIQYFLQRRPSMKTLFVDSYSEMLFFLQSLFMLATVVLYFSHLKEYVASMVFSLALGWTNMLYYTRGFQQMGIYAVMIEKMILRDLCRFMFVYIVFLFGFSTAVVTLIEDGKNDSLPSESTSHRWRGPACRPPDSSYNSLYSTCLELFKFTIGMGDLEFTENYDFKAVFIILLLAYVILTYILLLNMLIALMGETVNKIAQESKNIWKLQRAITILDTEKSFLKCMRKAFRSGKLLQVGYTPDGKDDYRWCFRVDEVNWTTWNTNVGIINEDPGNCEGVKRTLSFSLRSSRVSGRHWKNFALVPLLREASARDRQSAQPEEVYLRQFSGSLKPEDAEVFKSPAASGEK

`Cc1ccnnc1N1CCN(C(=O)Nc2ccc(C(C)(C)C)cc2)CC1` [Compound A17, 4-(4-Methyl-pyridazin-3-yl)-piperazine-1-carboxylic acid (4-tert-butyl-phenyl)-amide]: the IC50 at human VR1 [1] stood at 221 ± 50.5 nM; at human VR1 [2] it was 47.2 ± 9.9 nM.
